Source: patent US6197769A, “Indazole amide compounds as serotoninergic agents” (Aziende Chimiche Riunite Angelini Francesco A.C.R.A.F. …, priority 1997, dated 2001)
Counter-ions that a name gives are not always drawn.

These compounds were tested against T1, 5-HT4 Receptor (Rattus norvegicus, UniProt Q62758) (assay: Antagonistic action on 5-HT4 receptor: inhibition of serotonin-induced relaxation of rat oesophageal tunica pre-contracted with carbachol). Conditions: antagonism, read-out: pA2 (converted).
T1 construct: serotonin-induced relaxation of rat oesophageal tunica; from tissue; host or cells: rat oesophageal tunica
Experimental: Antagonistic Action on 5-HT4 Receptor
The antagonistic action of the compounds of the formula (I) was evaluated by testing the influence of the compound under evaluation on serotonin-induced relaxation of rat oesophageal tunica pre-contracted with carbachol according to the method described by J. D. Gale et al. in "Br. J. Pharmacol.", 111, 332-338, (1994).

T1 sequence (Q62758 whole entry): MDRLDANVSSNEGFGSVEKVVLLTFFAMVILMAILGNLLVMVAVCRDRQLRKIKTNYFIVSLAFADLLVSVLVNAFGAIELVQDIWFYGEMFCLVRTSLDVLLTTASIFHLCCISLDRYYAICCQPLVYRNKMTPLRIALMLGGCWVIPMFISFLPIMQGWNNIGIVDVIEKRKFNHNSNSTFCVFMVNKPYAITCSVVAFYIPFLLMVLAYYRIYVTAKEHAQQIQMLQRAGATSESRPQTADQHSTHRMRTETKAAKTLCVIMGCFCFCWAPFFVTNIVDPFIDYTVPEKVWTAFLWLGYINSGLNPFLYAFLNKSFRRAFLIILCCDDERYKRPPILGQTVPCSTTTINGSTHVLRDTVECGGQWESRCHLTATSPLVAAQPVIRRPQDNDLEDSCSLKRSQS

| SMILES | Kb |
| --- | --- |
| CC(C)n1nc(C(=O)NCC2CCN(CCc3ccccc3)CC2)c2ccccc21 [AFR 306, N3-{[1-(2-phenylethyl)-4-piperidinyl]methyl}-1-isopropyl-1H-3-indazolecarboxamide hydrochloride] | 0.437 nM |
| CC(C)n1nc(C(=O)NCC2CCN(CCc3ccccn3)CC2)c2ccccc21 [AFR 605, N3-({1-[2-(2-pyridinyl)ethyl]4-piperidinyl}methyl)-1-isopropyl-1H-3-indazolecarboxamide hydrochloride] | 0.0158 nM |
| CC(C)n1nc(C(=O)NCC2CCN(CCCCc3ccccc3)CC2)c2ccccc21 [AFR 603, N3-{[1-(4-phenylbutyl)-4-piperidinyl]methyl}-1-isopropyl-1H-3-indazolecarboxamide oxalate] | 0.759 nM |
| CC(C)n1nc(C(=O)NCC2CCN(CCC3CCCCC3)CC2)c2ccccc21 [AFR 604, N3-{[1-(2-cyclohexylethyl)-4-piperidinyl]methyl}-1-isopropyl-1H-3-indazolecarboxamide hydrochloride] | 6.46 nM |
